Experimental data published in BindingDB's records for doi:10.1021/acsmedchemlett.7b00188 (Wuxi Apptec (Shanghai), 2017).

Assay: Inhibition of Enterovirus 71 Shenzhen/120F1/09 capsid infected in human RD cells assessed as reduction in virus-induced cell death after 72 hrs by CCK-8 assay
For Cc1cc(CCCOc2c(C)cc(-c3noc(C(F)(F)F)n3)cc2C)on1 [3-(3,5-dimethyl-4-(3-(3-methylisoxazol-5-yl)propoxy)phenyl)-5-(trifluoromethyl)-1,2,4-oxadiazole], the EC50 was > 100000 nM. Compound CCO/N=C/c1ccc(OCCCCCN2CCN(c3ccnc(N)c3)S2(=O)=O)cc1 has an EC50 of 0.9 nM. With O=C1CC(CCCCN2CCN(c3ccncc3)C2=O)Oc2ccc(-c3ccc(Cl)cc3)cc21 (configuration not stated) the EC50 was 540 nM. In the case of CCn1ncc2cc(OCCCCCN3CCN(c4ccnc(N)c4)S3(=O)=O)ccc21, the EC50 is reported as > 1000 nM. For NC(=O)c1ncn([C@@H]2O[C@H](CO)[C@@H](O)[C@H]2O)n1 [Tribavirin], the EC50 was > 100000 nM. Nc1cc(N2CCN(CCCCCOc3ccc(-c4ccc(Cl)cc4)cc3)S2(=O)=O)ccn1 gave an EC50 of 12 nM. Compound O=C1CN(CCCCCOc2ccc(-c3ccc(Cl)cc3)cc2)CCN1c1ccncc1 has an EC50 of 1200 nM. For O=C1N(CCCCc2nc3cc(-c4ccc(Cl)cc4)ccc3o2)CCN1c1ccncc1, the EC50 was 1100 nM. Work on CCO/N=C(\C)c1ccc(OCCCCCN2CCN(c3ccnc(N)c3)S2(=O)=O)cc1 yielded an EC50 of 600 nM. Compound CCO/N=C/c1ccc(OCCC(C)CCN2CCN(c3ccnc(N)c3)C2=O)cc1 (configuration not stated) has an EC50 of 0.03 nM. CCc1noc2cc(OCCCCCN3CCN(c4ccnc(N)c4)S3(=O)=O)ccc12 showed an EC50 of 352 nM. In the case of CCO/N=C(\CC)c1ccc(OCCCCCN2CCN(c3ccnc(N)c3)S2(=O)=O)cc1, the EC50 is reported as 554 nM. Compound O=S1(=O)N(CCCCCOc2ccc(-c3ccc(Cl)cc3)cc2)CCN1c1ccncc1 has an EC50 of 110 nM. Work on S=C1N(CCCCCOc2ccc(-c3ccc(Cl)cc3)cc2)CCN1c1ccncc1 yielded an EC50 of 2800 nM. O=C1N(CCCCCOc2ccc(-c3ccc(Cl)cc3)cc2)CCN1c1ccncc1 [1-[5-(4''-Chloro-biphenyl-4-yloxy)-pentyl]-3-pyridin-4-yl-imidazolidin-2-one] gave an EC50 of 91 nM. Work on O=C1N(CCCCc2cc3cc(-c4ccc(Cl)cc4)ccc3o2)CCN1c1ccncc1 yielded an EC50 of 1100 nM. For O=C1C(=O)N(c2ccncc2)CCN1CCCCCOc1ccc(-c2ccc(Cl)cc2)cc1, the EC50 was > 1000 nM. Work on CCO/N=C1\CCCc2cc(OCCCCCN3CCN(c4ccnc(N)c4)S3(=O)=O)ccc21 yielded an EC50 of 309 nM. Work on O=C1CN(c2ccncc2)CCN1CCCCCOc1ccc(-c2ccc(Cl)cc2)cc1 yielded an EC50 of 180 nM. For CCn1ccc2cc(OCCCCCN3CCN(c4ccnc(N)c4)S3(=O)=O)ccc21, the EC50 was > 1000 nM. For O=C1N(CCCCC2CCc3cc(-c4ccc(Cl)cc4)ccc3O2)CCN1c1ccncc1 (configuration not stated), the EC50 was 48 nM. CCO/N=C1\CCc2cc(OCCCCCN3CCN(c4ccnc(N)c4)S3(=O)=O)ccc21 showed an EC50 of 4 nM.
